Experimental data reported in patent publication US20090110739A1, “Targeted cancer chemotherapy using synthetic nanoparticles” (University of North Texas Health Science Center at Forth …, priority 2007, published 2009).

Assays:
Assay type in all cases: cell-based
OV1063 = assay: MTT cytotoxicity, OV1063 cancer cell line; conditions: Homo sapiens, OV-1063; OV1063 cells
OVCAR 3 = assay: MTT cytotoxicity, OVCAR 3 cancer cell line; conditions: Homo sapiens; OVCAR 3 cells
DU145 = assay: MTT cytotoxicity, DU145 cancer cell line; conditions: Homo sapiens, DU-145; DU145 cells
cancer cells = assay: Uptake of paclitaxel encapsulated in sHDL nanoparticles by cancer cells; conditions: encapsulated in the delivery particles; HDL receptors; FIG. 7

SMILES: CC(=O)O[C@H]1C(=O)[C@@]2(C)[C@H]([C@H](OC(=O)c3ccccc3)[C@]3(O)C[C@H](OC(=O)[C@H](O)[C@@H](NC(=O)c4ccccc4)c4ccccc4)C(C)=C1C3(C)C)[C@]1(OC(C)=O)CO[C@@H]1C[C@@H]2O [Ptx, paclitaxel]
- IC50 (OV1063): 14.2 µM
- IC50 (OVCAR 3): 70.3 µM
- IC50 (DU145): 14.2 µM
- uptake by cancer cells (cancer cells): taken up by cancer cells via this receptor mediated mechanism
